Reference: EP4782445A1, “CDK KINASE INHIBITOR AND USE THEREOF” (Abbisko Therapeutics Co., Ltd., priority 2023, dated 2025)

Columns and labels:
CDK4/cyclin D3 = target: T1, CDK4/cyclin D3 (Homo sapiens, UniProt P11802); experiment: In vitro biochemical kinase activity assay for CDK4/cyclin D3 (HTRF)
T1 construct: purchased Carna
Description: II. In Vitro Biochemical Kinase Activity Assay for CDK4/Cyclin D3
The inhibitory effects of the compounds of the present invention on CDK4/cyclin D3 kinase activity were determined using an HTRF assay. The experimental process was as follows: • 1. The kinase reaction was carried out in a 384-well plate. 4.9 nM CDK4/cyclin D3 (Carna), 1 mM (or 80 µM) ATP, and 0.3 µM biotin-labeled substrate protein Rb-biotin (Cisbio) were incubated at 30°C for 90 min in a buffer system composed of 50 mM MgCl2, 1 mM DTT, and basal kinase buffer (Cisbio). • 2. The detection solution (Cisbio, containing reagents that specifically recognize phosphorylated Rb and Rb-biotin proteins, respectively) was added. The plate was then sealed with a film (to protect from light and volatilization) and incubated at 25°C for 60 min. • 3. The plate was transferred to an Envision plate reader to detect FRET signals. (The 665/615 ratio was calculated by reading the emission at 665 nm and 615 nM, respectively.) • 4. The IC50 values were determined by analyzing the inhibition at varying compound concentrations using Model 205 in the XLfit software.

CDK6/cyclin D3 = target: T2, CDK6/cyclin D3 (Homo sapiens, UniProt Q00534); experiment: In vitro biochemical kinase activity assay for CDK6/cyclin D3 (HTRF)
T2 construct: purchased Carna
Description: III. In Vitro Biochemical Kinase Activity Assay for CDK6/Cyclin D3
The inhibitory effects of the compounds of the present invention on CDK6/cyclin D3 kinase activity were determined using an HTRF assay. The experimental process was as follows: 1. The kinase reaction was carried out in a 384-well plate. 0.02 nM CDK6/cyclin D3 (Carna), 1 mM (or 100 µM) ATP, and 0.3 µM biotin-labeled substrate protein Rb-biotin (Cisbio) were incubated at 30°C for 60 min in a buffer system composed of 5 mM MgCl2, 1 mM DTT, and basal kinase buffer (Cisbio). 2. The detection solution (Cisbio, containing reagents that specifically recognize phosphorylated Rb and Rb-biotin proteins, respectively) was added. The plate was then sealed with a film (to protect from light and volatilization) and incubated at 25°C for 60 min. 3. The plate was transferred to an Envision plate reader to detect FRET signals. (The 665/615 ratio was calculated by reading the emission at 665 nm and 615 nM, respectively.) 4. The IC50 values were determined by analyzing the inhibition at varying compound concentrations using Model 205 in the XLfit software.

[1] = unmarked data: 80 µM ATP in Step 1
[2] = unmarked data: 100 µM ATP in Step 1
[3] = data marked with *: 1 mM ATP in Step 1

T2 sequence (Q00534 whole entry): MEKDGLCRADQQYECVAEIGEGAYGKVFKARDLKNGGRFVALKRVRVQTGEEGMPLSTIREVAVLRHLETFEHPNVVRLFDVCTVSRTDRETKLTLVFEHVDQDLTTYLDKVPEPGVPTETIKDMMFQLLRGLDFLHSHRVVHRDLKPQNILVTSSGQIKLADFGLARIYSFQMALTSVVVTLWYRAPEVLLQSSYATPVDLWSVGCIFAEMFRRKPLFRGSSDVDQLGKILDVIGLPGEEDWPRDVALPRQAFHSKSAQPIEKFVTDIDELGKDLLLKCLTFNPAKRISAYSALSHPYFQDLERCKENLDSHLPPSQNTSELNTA
T2 sequence (P30281 whole entry partner): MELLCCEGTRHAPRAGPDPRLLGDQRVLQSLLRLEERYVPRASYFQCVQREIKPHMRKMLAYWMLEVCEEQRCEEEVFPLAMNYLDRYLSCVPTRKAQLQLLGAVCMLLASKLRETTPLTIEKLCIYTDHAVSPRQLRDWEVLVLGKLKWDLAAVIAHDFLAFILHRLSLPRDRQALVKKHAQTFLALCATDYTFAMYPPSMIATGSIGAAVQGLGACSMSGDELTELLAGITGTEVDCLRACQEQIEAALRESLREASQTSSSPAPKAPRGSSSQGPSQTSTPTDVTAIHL
T1 sequence (P11802 whole entry): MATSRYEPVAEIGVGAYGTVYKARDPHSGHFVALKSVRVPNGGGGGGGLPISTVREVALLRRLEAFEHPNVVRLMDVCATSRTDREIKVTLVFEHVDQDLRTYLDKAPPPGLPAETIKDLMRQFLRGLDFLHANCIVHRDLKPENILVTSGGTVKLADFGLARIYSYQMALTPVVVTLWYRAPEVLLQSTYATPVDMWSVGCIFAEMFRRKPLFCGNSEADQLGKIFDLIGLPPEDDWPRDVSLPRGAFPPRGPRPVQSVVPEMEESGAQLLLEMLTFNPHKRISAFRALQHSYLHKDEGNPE
T1 sequence (P30281 whole entry partner): as the sequence (P30281 whole entry partner) above

SMILES	IC50 (CDK4/cyclin D3; [1])	IC50 (CDK6/cyclin D3; [2])	IC50 (CDK4/cyclin D3; [3])	IC50 (CDK6/cyclin D3; [3])
CCN1CCN(C(=O)c2ccc(Nc3ncc(Cl)c(C#Cc4cnc(C(C)(C)O)n4C(C)C)n3)nc2)CC1 [Example 67, (6-((5-chloro-4-((2-(2-hydroxypropan-2-yl)-1-isopropyl-1H-imidazol-5-yl)ethynyl)pyrimidin-2-yl)amino)pyridin-3-yl)(4-ethylpiperazin-1-yl)methanone]	1.17 nM	5.88 nM	–	–
CC(C)n1c(C#Cc2nc(N[C@@H]3CCOC[C@H]3C)ncc2Cl)cnc1C(C)(C)O [Example 86, 2-(5-((5-chloro-2-(((3 S,4R)-3-methyltetrahydro-2H-pyran-4-yl)amino)pyrimidin-4-yl)ethynyl)-1-isopropyl-1H-imidazol-2-yl)propan-2-ol]	480 nM	1970 nM	–	–
CC(C)n1c(C#Cc2nc(N[C@@H]3CCOC[C@H]3O)ncc2F)cnc1C(C)(C)O [Example 95, (3 S,4R)-4-((5-fluoro-4-((2-(2-hydroxypropan-2-yl)-1-isopropyl-1H-imidazol-5-yl)ethynyl)pyrimidin-2-yl)amino)tetrahydro-2H-pyran-3-ol]	–	–	117 nM	829 nM
CC(C)n1c(C#Cc2nc(N[C@@H]3CCOC[C@H]3C#N)ncc2Cl)cnc1C(C)(C)O [Example 101, (3R,4R)-4-((5-chloro-4-((2-(2-hydroxypropan-2-yl)-1-isopropyl-1H-imidazol-5-yl)ethynyl)pyrimidin-2-yl)amino)tetrahydro-2H-pyran-3-carbonitrile]	–	–	786 nM	4770 nM
CC(C)n1c(C#Cc2nc(N[C@@H]3CCOC[C@H]3O)ncc2Cl)cnc1C1CCCN1 (stereo partly drawn) [Example 68, (3 S,4R)-4-((5-chloro-4-((1-isopropyl-2-(pyrrolidin-2-yl)-1H-imidazol-5-yl)ethynyl)pyrimidin-2-yl)amino)tetrahydro-2H-pyran-3-ol]	–	–	76.7 nM	2600 nM
CC(C)n1c(C#Cc2nc(N[C@@H]3CCOC[C@H]3O)ncc2Cl)cnc1[C@@H](C)N1CCC[C@H](O)C1 [Example 123, (S)-1-((R)-1-(5-((5-chloro-2-(((3 S,4R)-3-hydroxytetrahydro-2H-pyran-4-yl)amino)pyrimidin-4-yl)ethynyl)-1-isopropyl-1H-imidazol-2-yl)ethyl)piperidin-3-ol]	–	–	36.9 nM	545 nM
CC(C)n1c(C#Cc2nc(N[C@@H]3CCOC[C@H]3O)ncc2Br)cnc1C(C)(C)O [Example 88, (3S,4R)-4-((5-bromo-4-((2-(2-hydroxypropan-2-yl)-1-isopropyl-1H-imidazol-5-yl)ethynyl)pyrimidin-2-yl)amino)tetrahydro-2H-pyran-3-ol]	–	51.1 nM	12.6 nM	–
CC(C)c1c(C#Cc2nc(N[C@@H]3CCOC[C@H]3O)ncc2Cl)cnn1CC(F)F [Example 128, (3 S,4R)-4-((5-chloro-4-((1-(2,2-difluoroethyl)-5-isopropyl-1H-pyrazol-4-yl)ethynyl)pyrimidin-2-yl)amino)tetrahydro-2H-pyran-3-ol]	–	–	53.3 nM	254 nM
CC(C)n1c(C#Cc2nc(N[C@@H]3CCOC[C@H]3O)ncc2Cl)cnc1CN1CCC[C@H](O)C1 [Example 75, (S)-1-((5-((5-chloro-2-(((3 S,4R)-3-hydroxytetrahydro-2H-pyran-4-yl)amino)pyrimidin-4-yl)ethynyl)-1-isopropyl-1H-imidazol-2-yl)methyl)piperidin-3-ol]	–	–	21.2 nM	1160 nM
CC(C)n1c(C#Cc2nc(N[C@@H]3CCOC[C@H]3O)ncc2Cl)cnc1CN1CCC[C@H](F)C1 [Example 105, (3S,4R)-4-((5-chloro-4-((2-(((S)-3-fluoropiperidin-1-yl)methyl)-1-isopropyl-1H-imidazol-5-yl)ethynyl)pyrimidin-2-yl)amino)tetrahydro-2H-pyran-3-ol]	–	–	26.4 nM	413 nM
CC1CCN(C)c2ncc(C#Cc3nc(N[C@@H]4CCOC[C@H]4O)ncc3Cl)n21 (stereo partly drawn) [Example 135, (3 S,4R)-4-((5-chloro-4-((5,8-dimethyl-5,6,7,8-tetrahydroimidazo[1,2-a]pyrimidin-3-yl)ethynyl)pyrimidin-2-yl)amino)tetrahydro-2H-pyran-3-ol]	–	–	177 nM	275 nM
CCN1CCN(Cc2ccc(Nc3ncc(Cl)c(C#Cc4cnc(C(C)(C)O)n4C(C)C)n3)nc2F)CC1 [Example 84, 2-(5-((5-chloro-2-((5-((4-ethylpiperazin-1-yl)methyl)-6-fluoropyridin-2-yl)amino)pyrimidin-4-yl)ethynyl)-1-isopropyl-1H-imidazol-2-yl)propan-2-ol]	–	–	7.44 nM	48.9 nM

The remaining molecules from weak to strong by IC50 (CDK4/cyclin D3; [3]), led by results:

IC50 (CDK4/cyclin D3; [1])	IC50 (CDK6/cyclin D3; [2])	IC50 (CDK4/cyclin D3; [3])	IC50 (CDK6/cyclin D3; [3])	SMILES
–	–	7.28 nM	33.7 nM	CC(C)c1c(C#Cc2nc(Nc3ccc(N4CC5(CN(C)C5)C4)cn3)ncc2F)cnn1C [Example 93, 5-fluoro-4-((5-isopropyl-1-methyl-1H-pyrazol-4-yl)ethynyl)-N-(5-(6-methyl-2,6-diazaspiro[3 .3]heptan-2-yl)pyridin-2-yl)pyrimidin-2-amine]
–	–	5.7 nM	87.8 nM	CC(C)n1c(C#Cc2nc(Nc3ccc(N4CC5(CN(CC(F)F)C5)C4)cn3)ncc2Cl)cnc1CN1CCC[C@H](O)C1 [Example 116, (S)-1-((5-((5-chloro-2-((5-(6-(2,2-difluoroethyl)-2,6-diazaspiro[3.3]heptan-2-yl)pyridin-2-yl)amino)pyrimidin-4-yl)ethynyl)-1-isopropyl-1H-imidazol-2-yl)methyl)piperidin-3-ol]
–	–	5.53 nM	17.6 nM	CC(C)n1c(C#Cc2nc(Nc3ccc(N4CCN(C)CC4=O)cn3)ncc2Cl)cnc1C(C)(C)O [Example 94, 1-(6-((5-chloro-4-((2-(2-hydroxypropan-2-yl)-1-isopropyl-1H-imidazol-5-yl)ethynyl)pyrimidin-2-yl)amino)pyridin-3-yl)-4-methylpiperazin-2-one]
–	–	5.25 nM	51.9 nM	CCN1CC2(C1)CN(c1ccc(Nc3ncc(Cl)c(C#Cc4cnc(CN5CCC[C@H](O)C5)n4C(C)C)n3)nc1)C2 [Example 108, (S)-1-((5-((5-chloro-2-((5-(6-ethyl-2,6-diazaspiro[3.3]heptan-2-yl)pyridin-2-yl)amino)pyrimidin-4-yl)ethynyl)-1-isopropyl-1H-imidazol-2-yl)methyl)piperidin-3-ol]
–	–	4.71 nM	38.4 nM	CCN1CCN(Cc2ccc(Nc3ncc(Cl)c(C#Cc4cnn(C)c4C(C)C)n3)nc2)CC1 [Example 69, 5-Chloro-N-(5-((4-ethylpiperazin-1-yl)methyl)pyridin-2-yl)-4-((5-isopropyl-1-methyl-1H-pyrazol-4-yl)ethynyl)pyrimidin-2-amine]
–	–	3.25 nM	29.5 nM	CC(C)c1c(C#Cc2nc(Nc3ccc(N4CC5(CN(CCF)C5)C4)cn3)ncc2F)cnn1C [Example 82, 5-Fluoro-N-(5-(6-(2-fluoroethyl)-2,6-diazaspiro[3.3]heptan-2-yl)pyridin-2-yl)-4-((5-isopropyl-1-methyl-1H-pyrazol-4-yl)ethynyl)pyrimidin-2-amine]
–	–	3.17 nM	53 nM	[2H]C([2H])(c1ncc(C#Cc2nc(Nc3ccc(CN4CCN(CC)CC4)cn3)ncc2Cl)n1C(C)C)N1CCC[C@H](O)C1 [Example 137, (S)-1-((5-((5-chloro-2-((5-((4-ethylpiperazin-1-yl)methyl)pyridin-2-yl)amino)pyrimidin-4-yl)ethynyl)-1-isopropyl-1H-imidazol-2-yl)methyl-d2)piperidin-3-ol]
–	–	2.52 nM	6.31 nM	CCN1CC2(C1)CN(c1ccc(Nc3ncc(Cl)c(C#Cc4cnc(C(C)(C)O)n4C(C)C)n3)nc1)C2 [Example 71, 2-(5-((5-chloro-2-((5-(6-ethyl-2,6-diazaspiro[3.3]heptan-2-yl)pyridin-2-yl)amino)pyrimidin-4-yl)ethynyl)-1-isopropyl-1H-imidazol-2-yl)propan-2-ol]
–	–	2.28 nM	17.9 nM	CC(C)n1c(C#Cc2nc(Nc3ccc(N4CC5(CN(C)C5)C4)cn3)ncc2Cl)cnc1CN1CCC[C@H](O)C1 [Example 115, (S)-1-((5-((5-chloro-2-((5-(6-methyl-2,6-diazaspiro[3.3]heptan-2-yl)pyridin-2-yl)amino)pyrimidin-4-yl)ethynyl)-1-isopropyl-1H-imidazol-2-yl)methyl)piperidin-3-ol]
–	–	2.07 nM	7.84 nM	CCN1CCN(Cc2ccc(Nc3ncc(Cl)c(C#Cc4cnc(C(C)O)n4C(C)C)n3)nc2)CC1 (centres unmarked) [Example 122, 1-(5-((5-chloro-2-((5-((4-ethylpiperazin-1-yl)methyl)pyridin-2-yl)amino)pyrimidin-4-yl)ethynyl)-1-isopropyl-1H-imidazol-2-yl)ethan-1-ol]
